The subject of experiment [1] is COV318 cells. Description: Inhibition of cell proliferation, CyQUANT Direct, COV318. The experiment is classed as cell-based. The following applies: Homo sapiens; COV318 ovarian cancer cells, 72-hour; read-out: COV 318 proliferation calculated IC50.
In experiment [2] the target is CDK7/Cyclin H/MAT1 complex (Homo sapiens, UniProt P50613). Briefly: CDK7 kinase inhibition assay (Caliper/LabChip EZ Reader).
Method: (§1) Compounds of the invention were assayed for inhibition of CDK7, CDK9, CDK12, and CDK2 activity at Biortus Biosciences (Jiangyin, Jiangsu Province, P.R. of China) using kinase assays for each CDK developed with a Caliper/LabChip EZ Reader (Perkin Elmer, Waltham, MA).
(§2) Furthermore, the CDK9 inhibition assay used CDK9/Cyclin T1 complex (8 nM) and “5-FAM-CDK9tide” peptide substrate (2 μM, synthesized fluorophore-labeled peptide with the following sequence: 5-FAM-GSRTPMY-NH2 (SEQ ID NO:2) where 5-FAM is defined above and NH2 signifies a C-terminal amide) with 10 mM MgCl2 in the buffer composition listed above. The CDK12 inhibition assay used CDK12 (aa686-1082)/Cyclin K complex (50 nM) and “5-FAM-CDK9tide” (2 μM) as defined above, with 2 mM MgCl2 in the buffer composition above. Additionally, the CDK2 inhibition assay used CDK2/Cyclin E1 complex (0.5 nM) and “5-FAM-CDK7tide” (2 μM) as defined above, with 2 mM MgCl2 in the buffer composition listed above.
(§3) The incubation period at 27° C. for each CDK inhibition assay was chosen such that the fraction of phosphorylated peptide product produced in each assay, relative to the total peptide concentration, was approximately 20% (±5%) for the uninhibited kinase (35 min. for CDK7, 35 min. for CDK2, 3 hr. for CDK12, 15 min. for CDK9).
The subject of experiment [3] is HCC70 cells. Briefly: Inhibition of cell proliferation, CyQUANT Direct, HCC70. The experiment is classed as cell-based, human. The following applies: Homo sapiens; HCC70 triple negative breast cancer cells, 72-hour; read-out: HCC 70 proliferation calculated IC50.
Experiment [4] concerns MB453 cells. Briefly: Inhibition of cell proliferation, CyQUANT Direct, MB453. The experiment is classed as cell-based, human. The following applies: Homo sapiens; MB453 triple negative breast cancer cells, 72-hour; read-out: MB 453 proliferation calculated IC50.
In experiment [5] the test system is COV504 cells. Briefly: Inhibition of cell proliferation, CyQUANT Direct, COV504. It counts as cell-based. The following applies: Homo sapiens; COV504 ovarian cancer cells, 72-hour; read-out: COV 504 proliferation calculated IC50.
Experiment [6] has as its target CDK12 (aa686-1082)/Cyclin K complex (Homo sapiens, UniProt Q9NYV4). Briefly: CDK12 kinase inhibition assay (Caliper/LabChip EZ Reader).
Method: as §1, §2, §3
Experiment [7] concerns the target CDK2/Cyclin E1 complex (Homo sapiens, UniProt P24941). Briefly: CDK2 kinase inhibition assay (Caliper/LabChip EZ Reader).
For experiment [8], the target named is CDK9/Cyclin T1 complex (Homo sapiens, UniProt P50750). Briefly: CDK9 kinase inhibition assay (Caliper/LabChip EZ Reader).
CDK9/Cyclin T1 complex, sequence (P50750 whole entry): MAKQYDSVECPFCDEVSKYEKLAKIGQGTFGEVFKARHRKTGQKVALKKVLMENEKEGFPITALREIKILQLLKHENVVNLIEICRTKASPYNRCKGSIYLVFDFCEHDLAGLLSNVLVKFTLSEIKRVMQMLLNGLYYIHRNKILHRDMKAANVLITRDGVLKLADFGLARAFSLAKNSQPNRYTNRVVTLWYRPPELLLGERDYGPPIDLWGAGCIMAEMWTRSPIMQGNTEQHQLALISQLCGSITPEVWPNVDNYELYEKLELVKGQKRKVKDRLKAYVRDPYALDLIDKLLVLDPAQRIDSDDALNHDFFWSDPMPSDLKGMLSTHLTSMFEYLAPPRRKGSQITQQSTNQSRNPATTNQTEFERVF
CDK9/Cyclin T1 complex, sequence (O60563 whole entry partner): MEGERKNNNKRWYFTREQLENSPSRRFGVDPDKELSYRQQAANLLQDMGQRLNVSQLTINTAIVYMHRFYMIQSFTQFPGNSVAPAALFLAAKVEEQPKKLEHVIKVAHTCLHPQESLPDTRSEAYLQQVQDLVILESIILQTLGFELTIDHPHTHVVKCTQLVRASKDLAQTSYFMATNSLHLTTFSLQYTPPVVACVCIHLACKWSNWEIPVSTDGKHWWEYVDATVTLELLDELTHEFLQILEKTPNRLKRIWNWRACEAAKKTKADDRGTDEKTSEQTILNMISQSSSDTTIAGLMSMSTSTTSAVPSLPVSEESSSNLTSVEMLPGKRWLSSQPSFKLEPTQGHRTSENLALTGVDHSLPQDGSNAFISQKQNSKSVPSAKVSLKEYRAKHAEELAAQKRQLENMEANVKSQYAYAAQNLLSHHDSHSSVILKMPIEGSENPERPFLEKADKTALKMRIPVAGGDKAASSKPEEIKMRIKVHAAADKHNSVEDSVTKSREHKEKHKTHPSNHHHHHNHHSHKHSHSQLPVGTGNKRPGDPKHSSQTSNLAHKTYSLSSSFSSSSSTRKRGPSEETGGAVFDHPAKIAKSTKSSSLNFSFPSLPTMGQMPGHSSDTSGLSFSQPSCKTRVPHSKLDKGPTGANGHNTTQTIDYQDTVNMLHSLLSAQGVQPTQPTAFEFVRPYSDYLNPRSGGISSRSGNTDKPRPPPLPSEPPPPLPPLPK
Method: as §1, §2, §3

Where only a bound is given, the exact number is not on record here.

CDK12 (aa686-1082)/Cyclin K complex, sequence (Q9NYV4 686-1082): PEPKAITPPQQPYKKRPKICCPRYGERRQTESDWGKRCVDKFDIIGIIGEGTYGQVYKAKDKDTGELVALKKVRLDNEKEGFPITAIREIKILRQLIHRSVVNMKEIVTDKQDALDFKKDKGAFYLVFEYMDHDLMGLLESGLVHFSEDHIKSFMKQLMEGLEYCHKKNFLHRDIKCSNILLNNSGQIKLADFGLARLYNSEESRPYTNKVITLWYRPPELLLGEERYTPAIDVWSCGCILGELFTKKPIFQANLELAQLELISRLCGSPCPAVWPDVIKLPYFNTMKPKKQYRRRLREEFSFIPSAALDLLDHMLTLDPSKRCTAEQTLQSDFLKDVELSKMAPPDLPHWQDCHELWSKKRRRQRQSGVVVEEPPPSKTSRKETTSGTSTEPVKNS
CDK12 (aa686-1082)/Cyclin K complex, sequence (O75909 whole entry partner, the tested form may be a part): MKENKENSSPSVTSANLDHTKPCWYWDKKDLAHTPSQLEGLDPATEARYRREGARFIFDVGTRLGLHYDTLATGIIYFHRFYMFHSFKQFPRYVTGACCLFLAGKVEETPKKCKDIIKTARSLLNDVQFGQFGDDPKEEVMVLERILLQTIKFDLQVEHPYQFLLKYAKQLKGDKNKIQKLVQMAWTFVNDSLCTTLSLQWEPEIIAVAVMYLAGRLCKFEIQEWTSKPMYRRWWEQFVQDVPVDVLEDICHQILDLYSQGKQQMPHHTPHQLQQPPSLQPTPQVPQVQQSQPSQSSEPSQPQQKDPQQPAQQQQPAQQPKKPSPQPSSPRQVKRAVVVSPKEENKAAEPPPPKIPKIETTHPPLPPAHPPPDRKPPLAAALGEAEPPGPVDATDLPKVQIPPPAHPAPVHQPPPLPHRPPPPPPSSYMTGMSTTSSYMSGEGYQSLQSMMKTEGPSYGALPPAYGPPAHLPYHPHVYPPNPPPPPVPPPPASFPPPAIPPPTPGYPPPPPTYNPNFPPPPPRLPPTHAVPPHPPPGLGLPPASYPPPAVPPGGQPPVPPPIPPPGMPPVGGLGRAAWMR
CDK7/Cyclin H/MAT1 complex, sequence (P50613 whole entry): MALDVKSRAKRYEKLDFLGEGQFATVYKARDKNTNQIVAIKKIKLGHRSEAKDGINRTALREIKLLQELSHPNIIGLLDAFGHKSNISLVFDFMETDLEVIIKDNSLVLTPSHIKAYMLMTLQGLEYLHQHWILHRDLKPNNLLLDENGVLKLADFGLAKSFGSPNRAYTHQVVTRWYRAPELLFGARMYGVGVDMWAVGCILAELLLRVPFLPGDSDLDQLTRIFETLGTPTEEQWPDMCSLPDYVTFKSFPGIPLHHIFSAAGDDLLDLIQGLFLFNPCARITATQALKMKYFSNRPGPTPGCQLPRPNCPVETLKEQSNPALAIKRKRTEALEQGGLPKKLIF
CDK7/Cyclin H/MAT1 complex, sequence (P51946 whole entry partner): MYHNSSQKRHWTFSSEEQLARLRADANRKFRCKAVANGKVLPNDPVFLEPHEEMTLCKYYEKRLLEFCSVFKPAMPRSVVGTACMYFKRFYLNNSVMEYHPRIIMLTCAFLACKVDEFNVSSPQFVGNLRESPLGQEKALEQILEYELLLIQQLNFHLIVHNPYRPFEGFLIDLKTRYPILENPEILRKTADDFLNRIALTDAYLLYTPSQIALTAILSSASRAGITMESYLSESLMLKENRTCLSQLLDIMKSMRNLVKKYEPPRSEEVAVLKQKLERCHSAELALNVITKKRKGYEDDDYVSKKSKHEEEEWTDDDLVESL
CDK7/Cyclin H/MAT1 complex, sequence (P51948 whole entry partner): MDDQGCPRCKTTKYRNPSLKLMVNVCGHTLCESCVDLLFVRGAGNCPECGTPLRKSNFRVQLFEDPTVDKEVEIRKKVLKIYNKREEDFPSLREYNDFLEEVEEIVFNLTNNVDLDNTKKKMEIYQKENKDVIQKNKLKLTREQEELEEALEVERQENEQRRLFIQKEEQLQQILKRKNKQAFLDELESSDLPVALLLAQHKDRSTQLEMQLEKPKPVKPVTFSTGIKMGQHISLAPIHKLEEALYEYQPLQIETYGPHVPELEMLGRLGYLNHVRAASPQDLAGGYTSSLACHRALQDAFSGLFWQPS

Regarding `N#Cc1ccc2c(-c3nc(N[C@H]4CC[C@@H]4N4CCOCC4)ncc3C(F)(F)F)c[nH]c2c1` [Compound 130], the IC50 in experiment [1] was greater than 2000 nM; in experiment [2], 100 to 500 nM; in experiment [3] it was greater than 2000 nM; in experiment [4] it was greater than 2000 nM; in experiment [5], greater than 2000 nM; in experiment [6], greater than 500 nM. In addition, the IC50 in experiment [7] and in experiment [8] was greater than 500 nM throughout.
For the compound `Cc1noc(C)c1-c1ccc2c(-c3nc(N[C@H]4CC[C@@H]4N)ncc3C(F)(F)F)c[nH]c2c1` [Compound 116, (1S,2S)—N2-[4-[6-(3,5-dimethylisoxazol-4-yl)-1H-indol-3-yl]-5-(trifluoromethyl)pyrimidin-2-yl]cyclobutane-1,2-diamine], the IC50 was 100 to 500 nM in experiment [1]; less than 30 nM in experiment [2]; 100 to 500 nM in experiment [3]; less than 100 nM in experiment [4]; 100 to 500 nM in experiment [5]; greater than 500 nM in experiment [6]. In addition, the IC50 in experiment [7] and in experiment [8] was greater than 500 nM in each case.
Turning to `CCO[C@@H]1CNC[C@H]1Nc1ncc(C(F)(F)F)c(-c2c[nH]c3cc(C#N)ccc23)n1` (relative stereo) [Compound 111], the IC50 in experiment [1] was greater than 2000 nM; in experiment [2], 100 to 500 nM; in experiment [3], greater than 2000 nM; in experiment [4], greater than 2000 nM; in experiment [5], greater than 2000 nM; in experiment [6] it was greater than 500 nM. The IC50 in experiment [7] and in experiment [8] was greater than 500 nM throughout.
For the compound `Cc1noc(C)c1-c1ccc2c(-c3nc(N[C@@H]4C[C@@H]5CC[C@H]4N5)ncc3C(F)(F)F)c[nH]c2c1` [Compound 137, (1S,2S,4R)—N-[4-[6-(3,5-dimethylisoxazol-4-yl)-1H-indol-3-yl]-5-(trifluoromethyl)pyrimidin-2-yl]-7-azabicyclo-[2.2.1]-heptan-3-amine], the IC50 in experiment [1] was 100 to 500 nM; in experiment [2] it was less than 30 nM; in experiment [3], less than 100 nM; in experiment [4] it was less than 100 nM; in experiment [5] it was less than 100 nM; in experiment [6], greater than 500 nM. Moreover, the IC50 in experiment [7] and in experiment [8] was greater than 500 nM in each case.
`N#Cc1ccc2c(-c3nc(N[C@H]4CCC[C@@H]4N4CCCC4)ncc3C(F)(F)F)c[nH]c2c1` [Compound 122]: the IC50 in experiment [1] was 100 to 500 nM; in experiment [2] it was 30 to 100 nM; in experiment [3], 100 to 500 nM; in experiment [4] it was 100 to 500 nM; in experiment [5], 100 to 500 nM; in experiment [6], greater than 500 nM. Moreover, the IC50 in experiment [7] and in experiment [8] was greater than 500 nM each time.
Turning to `CC(=O)N[C@H]1CCC[C@@H]1Nc1ncc(C(F)(F)F)c(-c2c[nH]c3cc(C#N)ccc23)n1` [Compound 120, N-[(1S,2S)-2-[[4-(6-cyano-1H-indol-3-yl)-5-(trifluoromethyl)pyrimidin-2-yl]-amino]cyclopentyl]-acetamide], the IC50 in experiment [1] was greater than 2000 nM; in experiment [2] it was greater than 500 nM; in experiment [3] it was greater than 2000 nM; in experiment [4] it was greater than 2000 nM; in experiment [5] it was greater than 2000 nM; in experiment [6] it was greater than 500 nM. Moreover, the IC50 in experiment [7] and in experiment [8] was greater than 500 nM each time.
As to `N#Cc1ccc2c(-c3nc(N[C@@H]4CNC[C@@H]4O)ncc3C(F)(F)F)c[nH]c2c1` (relative stereo) [Compound 107], the IC50 in experiment [1] was greater than 2000 nM; in experiment [2] it was 100 to 500 nM; in experiment [3] it was greater than 2000 nM; in experiment [4], greater than 2000 nM; in experiment [5] it was greater than 2000 nM; in experiment [6] it was greater than 500 nM. The IC50 in experiment [7] and in experiment [8] was greater than 500 nM throughout.
Turning to `Cc1noc(C)c1-c1ccc2c(-c3nc(N[C@@H]4C[C@H]5CC[N@](CC5)C4)ncc3C(F)(F)F)cn(S(=O)(=O)c3ccccc3)c2n1` [Compound 142, (3R)—N-[4-[1-(benzenesulfonyl)-6-(3,5-dimethylisoxazol-4-yl)pyrrolo[2,3-b]pyridin-3-yl]-5-(trifluoromethyl)pyrimidin-2-yl]-1-azabicyclo[3.2.2]nonan-3-amine], the IC50 is 100 to 500 nM in experiment [1]; less than 30 nM in experiment [2]; 100 to 500 nM in experiment [3]; 100 to 500 nM in experiment [4]; 100 to 500 nM in experiment [5]; greater than 500 nM in experiment [6]. Besides, the IC50 in experiment [7] and in experiment [8] was greater than 500 nM each time.
For the compound `COC1CN([C@@H]2CCC[C@@H]2Nc2ncc(C(F)(F)F)c(-c3c[nH]c4nc(-c5c(C)noc5C)ccc34)n2)C1` [Compound 165, 4-[6-(3,5-dimethylisoxazol-4-yl)-1H-pyrrolo[2,3-b]pyridin-3-yl]-N-[(1S,2R)-2-(3-methoxyazetidin-1-yl)cyclopentyl]-5-(trifluoromethyl)pyrimidin-2-amine], the IC50 was greater than 2000 nM in experiment [1]; 30 to 100 nM in experiment [2]; greater than 2000 nM in experiment [3]; 500 to 2000 nM in experiment [4]; greater than 2000 nM in experiment [5]; greater than 500 nM in experiment [6]. The IC50 in experiment [7] and in experiment [8] was greater than 500 nM each time.
Regarding `Cc1noc(C)c1-c1ccc2c(-c3nc(NC4CC[C@@H]4N4CCCC4)ncc3C(F)(F)F)c[nH]c2n1` (stereo in doubt) [Compound 149, 4-[6-(3,5-dimethylisoxazol-4-yl)-1H-pyrrolo[2,3-b]pyridin-3-yl]-N-(2-pyrrolidin-1-ylcyclobutyl)-5-(trifluoromethyl) pyrimidin-2-amine], the IC50 in experiment [1] is greater than 2000 nM; in experiment [2], less than 30 nM; in experiment [3], less than 100 nM; in experiment [4], less than 100 nM; in experiment [5], less than 100 nM; in experiment [6], greater than 500 nM. In addition, the IC50 in experiment [7] and in experiment [8] was greater than 500 nM each time.
As to `N[C@H]1CCC[C@@H]1Nc1ncc(C(F)(F)F)c(-c2c[nH]c3cc(-c4nccs4)ccc23)n1` [Compound 117, (1S,2S)—N1-[4-(6-thiazol-2-yl-1H-indol-3-yl)-5-(trifluoromethyl)pyrimidin-2-yl]-cyclopentane-1,2-diamine], the IC50 in experiment [1] is greater than 2000 nM; in experiment [2], less than 30 nM; in experiment [3], 100 to 500 nM; in experiment [4], 100 to 500 nM; in experiment [5] it was 100 to 500 nM; in experiment [6], greater than 500 nM. For the same compound, the IC50 in experiment [7] and in experiment [8] was greater than 500 nM each time.
In the case of `N#Cc1ccc2c(-c3nc(N[C@H]4Cc5ccccc5[C@@H]4N)ncc3C(F)(F)F)c[nH]c2c1` [Compound 119, 3-[2-[[(1S,2S)-1-aminoindan-2-yl]-amino]-5-(trifluoromethyl)pyrimidin-4-yl]-1H-indole-6-carbonitrile], the IC50 in experiment [1] is greater than 2000 nM; in experiment [2], less than 30 nM; in experiment [3], 100 to 500 nM; in experiment [4], 100 to 500 nM; in experiment [5], 100 to 500 nM; in experiment [6], greater than 500 nM. Further, the IC50 in experiment [7] and in experiment [8] was greater than 500 nM each time.
Take `N#Cc1ccc2c(-c3nc(N[C@@H]4C[C@@H]5CCC4N5)ncc3C(F)(F)F)c[nH]c2c1` (racemic) [Compound 106, 3-(2-[[(+/−)-exo-7-azabicyclo[2.2.1]heptan-2-yl]amino]-5-(trifluoromethyl)pyrimidin-4-yl)-1H-indole-6-carbonitrile]: the IC50 in experiment [1] is 100 to 500 nM; in experiment [2] it was less than 30 nM; in experiment [3] it was 100 to 500 nM; in experiment [4], 100 to 500 nM; in experiment [5], 100 to 500 nM; in experiment [6] it was greater than 500 nM. Besides, the IC50 in experiment [7] and in experiment [8] was greater than 500 nM throughout.
Consider `N#Cc1ccc2c(-c3nc(N[C@H]4CN[C@H](CO)C4)ncc3C(F)(F)F)c[nH]c2c1` [Compound 112], for which the IC50 was greater than 2000 nM in experiment [1]; 100 to 500 nM in experiment [2]; greater than 2000 nM in experiment [3]; 500 to 2000 nM in experiment [4]; greater than 2000 nM in experiment [5]; greater than 500 nM in experiment [6]. Further, the IC50 in experiment [7] and in experiment [8] was greater than 500 nM in each case.
In the case of `N#Cc1ccc2c(-c3nc(N[C@@H]4C[C@@H]5CC[C@H]4N5)ncc3C(F)(F)F)c[nH]c2c1` [Compound 115, 3-[2-[[(1R,2R,4S)-7-azabicyclo[2.2.1]heptan-3-yl]amino]-5-(trifluoromethyl)pyrimidin-4-yl]-1H-indole-6-carbonitrile], the IC50 is 500 to 2000 nM in experiment [1]; 30 to 100 nM in experiment [2]; 500 to 2000 nM in experiment [3]; 100 to 500 nM in experiment [4]; 100 to 500 nM in experiment [5]; greater than 500 nM in experiment [6]. The IC50 in experiment [7] and in experiment [8] was greater than 500 nM in each case.
Take `CN(C)[C@H]1CCC[C@@H]1Nc1ncc(C(F)(F)F)c(-c2c[nH]c3cc(C#N)ccc23)n1` [Compound 124]: the IC50 is greater than 2000 nM in experiment [1]; 100 to 500 nM in experiment [2]; 500 to 2000 nM in experiment [3]; 500 to 2000 nM in experiment [4]; 500 to 2000 nM in experiment [5]; greater than 500 nM in experiment [6]. The IC50 in experiment [7] and in experiment [8] was greater than 500 nM throughout.

The values above are taken from patent US11918592B2, “Inhibitors of cyclin dependent kinase 7 (CDK7)” (Syros Pharmaceuticals, Inc., priority 2018, dated 2024).
